In publication PMC6297231 (Nature Communications, 2018):
Where two headings read alike, the source gives them in different places. Where a SMILES comes first, the peptide text is derived from it. The star is where a group is joined. Biotin = O=C1N[C@H]2[C@H](CS[C@H]2CCCCC(=O)*)N1; Ahx = NCCCCCC(=O)O

Tests used:
MOLP8 = assay: Caspase-3/7 activation assay; assay type: cell-based
Experimental: (§4) Cells were plated at 3000 cells/well in 384-well white plates in corresponding cell growth media. […] Caspase-3/7 activation was subsequently determined using a Caspase-Glo 3/7 Reagent (Promega) and viability was assayed using the CellTiter-Glo Reagent (Promega) as described in manufacturer’s instructions. Dose–response curves for caspase-3/7 activation and viability were plotted and analyzed (including EC50 and GI50 determination) using GraphPad Prism.

MV411 = assay: Caspase-3/7 activation assay; assay type: cell-based
Experimental: as §4

H23 = assay: Caspase-3/7 activation assay; assay type: cell-based; conditions: for EC50: caspase activation, Mcl-1-dependent cell line, read-out: NCI-H23, EC50; for NCI-H23 caspase pEC50: mean of log transformed data
Experimental: as §4

Bcl-2 = target: T1, Bcl-2 (Homo sapiens, UniProt P10415); assay: TR-FRET binding assay; conditions: binding to Bcl-2, used in Ki calculations; read-out: Peptide, Kd
T1 construct: C-Terminal 6His-tagged Bcl-2 protein from Bcl-2 (M1-F212); made in house; host or cells: E. coli
From the text: (§1) N-terminal GST-tagged-Mcl-1 protein from Mcl-1 (E171-G327), N-terminal GST-tagged Bcl-xL protein from Bcl-xL (1-209), N-Terminal 6His-tagged Bfl-1 protein from Bfl-1 (M1-K151), N-Terminal 6His-tagged Bcl-w protein from Bcl-w (M1-R171), and C-Terminal 6His-tagged Bcl-2 protein from Bcl-2 (M1-F212) were expressed as a tagged fusion protein in E. coli and subsequently purified via Glutathione Sepharose-affinity or Ni-NTA resin purification, and size-exclusion chromatography.
(§2) For TR-FRET, tagged fusion proteins were incubated with a Europium-labeled antibody and a HyLite Fluor 647-labeled peptide, or a biotin-labeled peptide with a streptavidin-labeled ulight fluorophore allowing the assembly of donor and acceptor dye pairs for use in protein-binding assays.
(§3) The reaction final concentrations for Mcl-1 were 1.5 nM GST-Mcl-1, 0.5 nM LanthaScreen Eu tagged GST antibody (LifeTechnologies cat#PV5594), and 4 nM HyLite Fluor 647-labeled Bim peptide C (Hilyte647 C2 Maleimide)-[…]; for Bcl-xl were 2 nM GST-Bcl-xl, 2 nM LanthaScreen Eu-tagged GST antibody, and 10 nM HyLite Fluor 647-labeled BAK peptide C(Hilyte647 C2 Maleimide)-[…]; for Bfl-1 were 4 nM His-Bfl-1, 0.5 nM LanthaScreen Eu-tagged HIS antibody (PerkinElmer cat#AD0205), and 10 nM HyLite Fluor 647-labeled BIM peptide C(Hilyte647-C2-Maleimide)-[…]; for Bcl-2 and Bcl-w: 2 nM His-Bcl-2, or 2 nM His-Bcl-w, with 0.5 nM LanthaScreen Eu-tagged HIS antibody, 10 nM biotin-labeled Bim peptide (Biotin-lc-[…]), and 2.4 nM a streptavidin labeled ULight Fluorophore (PerkinElmer cat#TRF0102-D). Reactions were incubated at 24 °C for 120–180 min before reading on a Tecan (InfiniteM1000 spectrofluorometer) with excitation at 340 nm and emission at […] and 665 nm. Ratio of fluorescent emission intensity at 665–620 nm was calculated for each reaction (equation 1). Percent inhibition was calculated based upon min (control compound) vs. max (DMSO) according to Eq. (2) and the IC50 was derived the smart fit curve (Genedata screener) of % inhibition vs. concentration. Ki values were calculated from Eq. […]

Bcl-w = target: T2, Bcl-w (Homo sapiens, UniProt Q92843); assay: TR-FRET binding assay; conditions: binding to Bcl-w, used in Ki calculations; read-out: Peptide, Kd
T2 construct: N-Terminal 6His-tagged Bcl-w protein from Bcl-w (M1-R171); made in house; host or cells: E. coli
T2 sequence (Q92843 1-171): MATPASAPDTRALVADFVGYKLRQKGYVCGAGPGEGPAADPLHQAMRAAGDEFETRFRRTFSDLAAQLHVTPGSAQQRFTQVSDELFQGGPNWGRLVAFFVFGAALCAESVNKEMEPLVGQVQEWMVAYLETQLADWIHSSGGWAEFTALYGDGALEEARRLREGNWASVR
From the text: as §1, §2, §3

Mcl-1 [1] = target: T3, Mcl-1 (Homo sapiens, UniProt Q07820); assay: TR-FRET binding assay; design: N-terminal GST-tagged-Mcl-1 protein from Mcl-1 (E171-G327); made in house; host or cells: E. coli
Experimental: Percent inhibition was calculated based upon min (control compound) vs. max (DMSO) according to Eq. (2) and the IC50 was derived the smart fit curve (Genedata screener) of % inhibition vs. concentration. Ki values were calculated from Eq.

Mcl-1 [2] = target: T3, Mcl-1; assay: SPR direct binding assay; design: 6His-tagged Mcl-1 protein (E171-G327) was immobilized using NTA capture-coupling
Experimental: A Biacore T200 instrument (GE Healthcare) was used to monitor binding interactions using a direct binding assay format. 6His-tagged Mcl-1 protein (E171-G327) was immobilized using NTA capture-coupling at a flow rate of 10 μL min^-1 and using an immobilization running buffer containing 10 mM HEPES, 300 mM NaCl, 1 mM TCEP, and 0.05% Tween-20 at 25 °C. […] Approximately 300 response units of Mcl-1 protein (2 μg mL^-1 in immobilization running buffer) were immobilized using the ‘aim for’ function in the T200 Control Software (GE Healthcare). Remaining reactive esters were blocked using a 7 min injection of 1 M ethanolamine. Reference flow cells were prepared without protein. All binding measurements were performed in 10 mM Tris, pH 7.5, 300 mM NaCl, 1 mM TCEP, 1% DMSO, and 0.02% Tween-20 at 25 °C at a flow rate of 30 μL min^-1. Buffer was primed through the instrument overnight to stabilize the surface before subsequent assay steps. Prior to kinetic analysis, solvent calibration and double referencing subtractions were made to eliminate bulk refractive index changes, injection noise, and data drift. Affinity and binding kinetic parameters were determined by global fitting to a 1:1-binding model within the Biacore T200 Evaluation Software (GE Healthcare).

MOLM-13 leukemic cells = assay: MOLM-13 disseminated AML model; assay type: in vivo, mice; conditions: venetoclax 100 mg kg^−1 p.o. daily, AZD5991 60 mg kg^−1 i.v. weekly, after 10 days
From the text: MOLM-13: These studies complied with all relevant ethical regulations described in the guidelines established by GV-SOLAS Institutional Animal Care and Use Committee. Female CIEA-NOG mice were purchased from Taconic. Mice between 5 and 8 weeks old were tail vein injected with five million MOLM-13 cells. Treatment started 3 days after implantation. AZD5991, venetoclax, and vehicle were formulated and administered as mentioned above. Bone marrow and peripheral blood were collected 10 days post-treatment initiation, followed by red cell lysis (ACK lysis buffer), washes with FC buffer (PBS + 2% FCS) and cell staining with AquaZombie live/dead stain (cat#423102, Biolegend) containing antibodies against human CD45 (cat#564105, BDBiosciences) and human HLA-ABC (cat#561346, BDBiosciences) or isotype controls (mIgG1 cat#552834, BDBiosciences; mIgG1 cat#561504, BDBiosciences). Samples were washed with FC buffer and data acquired on an Attune NXT cytometer and analyzed using FlowJo software. Gating was performed on single/live/FCS vs. SSC/HLA-ABC vs. hCD45 double positive cells (Supplementary Figure 8).

Nomo1 = assay: Caspase-3/7 activation assay; assay type: cell-based; conditions: Homo sapiens, NOMO-1, 6 h, read-out: 6h caspase EC50; NOMO1, single agent
Experimental: as §4

MOLM13 = assay: Caspase-3/7 activation assay; assay type: cell-based; conditions: Homo sapiens, MOLM-13, 6 h, read-out: 6h caspase EC50; MOLM13, single agent
Experimental: as §4

ME1 = assay: Caspase-3/7 activation assay; assay type: cell-based; conditions: ME-1, 6 h, read-out: 6h caspase EC50; ME1, single agent
Experimental: as §4

KG1 = assay: Caspase-3/7 activation assay; assay type: cell-based; conditions: Homo sapiens, KG-1, 6 h, read-out: 6h caspase EC50; KG1, single agent
Experimental: as §4

NB4 = assay: Caspase-3/7 activation assay; assay type: cell-based; conditions: Homo sapiens, NB-4, 6 h, read-out: 6h caspase EC50; NB4, single agent
Experimental: as §4

OCIAML3 = assay: Caspase-3/7 activation assay; assay type: cell-based; conditions: Homo sapiens, OCI-AML-3, 6 h, read-out: 6h caspase EC50; OCIAML3, single agent
Experimental: as §4

HEL92.1.7 = assay: Caspase-3/7 activation assay; assay type: cell-based; conditions: Homo sapiens, HEL 92.1.7, 6 h, read-out: 6h caspase EC50; HEL9217, single agent
Experimental: as §4

OCIAML5 = assay: Caspase-3/7 activation assay; assay type: cell-based; conditions: Homo sapiens, OCI-AML-5, 6 h, read-out: 6h caspase EC50; OCIAML5, single agent
Experimental: as §4

OCIM1 = assay: Caspase-3/7 activation assay; assay type: cell-based; conditions: OCI-M1, 6 h, read-out: 6h caspase EC50; OCIM1, single agent
Experimental: as §4

CMK = assay: Caspase-3/7 activation assay; assay type: cell-based; conditions: Homo sapiens, 6 h, read-out: 6h caspase EC50; CMK, single agent
Experimental: as §4

[3] = caspase activation, Mcl-1-dependent cell line, read-out: MOLP-8, EC50
[4] = caspase activation, Mcl-1-dependent cell line, read-out: MV4-11, EC50

T3 sequence (Q07820 171-327): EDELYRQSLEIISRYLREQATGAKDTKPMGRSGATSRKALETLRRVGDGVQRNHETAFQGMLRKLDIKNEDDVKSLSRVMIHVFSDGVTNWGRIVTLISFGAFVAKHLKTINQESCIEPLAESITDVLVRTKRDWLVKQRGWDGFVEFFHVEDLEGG
T1 sequence (P10415 1-212): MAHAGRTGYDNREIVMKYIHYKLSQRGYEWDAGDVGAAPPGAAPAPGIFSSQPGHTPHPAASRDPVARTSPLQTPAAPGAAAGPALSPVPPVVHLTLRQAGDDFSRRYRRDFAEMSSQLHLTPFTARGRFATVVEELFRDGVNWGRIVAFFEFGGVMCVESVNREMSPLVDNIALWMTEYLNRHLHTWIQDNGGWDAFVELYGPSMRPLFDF

Structure (SMILES)	EC50 (MOLP8; [3]) [nM]	MOLP-8 caspase pEC50 (MOLP8; mean of log transformed data)	EC50 (MV411; [4]) [nM]	MV4-11 caspase pEC50 (MV411; mean of log transformed data)	EC50 (H23) [nM]	NCI-H23 caspase pEC50 (H23)	IC50 (Mcl-1 [1]; read-out: Mcl-1 FRET, IC50) [nM]	Kd (Mcl-1 [2]; read-out: Mcl-1 SPR, Kd) [nM]	also measured
Cc1c2c(nn1C)CSCc1cc(n(C)n1)CSc1cc(c3ccccc3c1)OCCCc1c(C(=O)O)n(C)c3c-2c(Cl)ccc13 (atropisomer, axis not shown; (Sa)) [(Sa)-7]	> 16000	< 4.8	> 16000	< 4.8	> 25000	< 4.6			
CC[C@H](C)[C@H](NC(=O)[C@H](CCCNC(=N)N)NC(=O)[C@H](CCCNC(=N)N)NC(=O)[C@H](CC(C)C)NC(=O)[C@H](CCC(=O)O)NC(=O)[C@H](CC(N)=O)NC(=O)[C@H](C)NC(=O)[C@@H](NC(=O)[C@H](Cc1c[nH]c2ccccc12)NC(=O)[C@@H](NC(=O)[C@H](CCC(=O)O)NC(=O)[C@@H]1CCCN1C(=O)[C@H](CCCNC(=N)N)NC(=O)[C@H](CCSC)NC(=O)CNC(=O)CNC(=O)CCCCCNC(=O)CCCC[C@@H]1SC[C@@H]2NC(=O)N[C@@H]21)[C@@H](C)CC)[C@@H](C)CC)C(=O)NCC(=O)N[C@@H](CC(=O)O)C(=O)N[C@@H](CCC(=O)O)C(=O)N[C@@H](Cc1ccccc1)C(=O)N[C@@H](CC(N)=O)C(=O)N[C@@H](C)C(=O)O [Biotin Bim peptide(biotin-Ic-), reference compound] ({Biotin-Ahx}-GGMRPEIWIANELRRIGDEFNA-OH)									Kd (Bcl-2): 5 nM; Kd (Bcl-w): 10 nM
Cc1ccccc1-c1cccc2c(CCCOc3cccc4c3CCCC4)c(C(=O)O)[nH]c12 [Compound 1, reference compound]							1100		
Cc1c(-c2cccc3c(CCCOc4cccc5ccccc45)c(C(=O)O)[nH]c23)c(CSCc2nn(C)c(C)c2-c2cccc3c(CCCOc4cccc5ccccc45)c(C(=O)O)[nH]c23)nn1C [Compound 3]							770		
Cc1c2c(nn1C)CSCc1cc(n(C)n1)CSc1cc(c3ccccc3c1)OCCCc1c(C(=O)O)[nH]c3c-2cccc13 [Compound 5]							19	47	EC50 (MOLP8; Homo sapiens, MOLP-8, caspase activation, Mcl-1-dependent cell line, read-out: MOLP-8, EC50): > 31500 nM; EC50 (MOLP8; Homo sapiens, MOLP-8, mean of log transformed data, read-out: MOLP-8 caspase pEC50 (converted)): > 31600 nM; EC50 (MV411; Homo sapiens, MV4-11, caspase activation, Mcl-1-dependent cell line, read-out: MV4-11, EC50): > 31500 nM; EC50 (MV411; Homo sapiens, MV4-11, mean of log transformed data, read-out: MV4-11 caspase pEC50 (converted)): > 31600 nM; Kd (Mcl-1 [2]; mean of log transformed data, read-out: MCL1 SPR pKd (converted)): 46.8 nM; IC50 (Mcl-1 [1]; mean of log transformed data, read-out: MCL1 FRET pIC50 (converted)): 19.1 nM
Cc1c2c(nn1C)CSCc1cc(n(C)n1)CSc1cc(c3ccccc3c1)OCCCc1c(C(=O)O)n(C)c3c-2cccc13 [Compound 6]	660	6.18	1050	5.98	5750	5.24	4	8	MCL1 SPR pKd (Mcl-1 [2]; mean of log transformed data): 8.10; MCL1 FRET pIC50 (Mcl-1 [1]; mean of log transformed data): 8.37
Cc1nn(C)c(COc2ccc(N3CCN(S(=O)(=O)N(C)C)CC3)cc2)c1-c1cccc2c(CCCOc3cccc4ccccc34)c(C(=O)O)n(CCN3CCOCC3)c12 [Compound 8, A-1210477, reference compound]	3550	5.45	1860	5.73	20900	4.68	6	11	MCL1 SPR pKd (Mcl-1 [2]; mean of log transformed data): 7.94; MCL1 FRET pIC50 (Mcl-1 [1]; mean of log transformed data): 8.20
CC1(C)CCC(CN2CCN(c3ccc(C(=O)NS(=O)(=O)c4ccc(NCC5CCOCC5)c([N+](=O)[O-])c4)c(Oc4cnc5[nH]ccc5c4)c3)CC2)=C(c2ccc(Cl)cc2)C1 [venetoclax, reference compound]									percentage of HLA-ABC+ hCD45+ leukemic cells in peripheral blood vs. vehicle (MOLM-13 leukemic cells): significantly reduced; EC50 (MV411; Homo sapiens, MV4-11, 6 h, read-out: 6h caspase EC50, MV411, single agent): 45.2 nM; EC50 (Nomo1): > 333 nM; EC50 (MOLM13): 9.66 nM; EC50 (ME1): 10.2 nM; EC50 (KG1): 269 nM; EC50 (NB4): 27.5 nM; EC50 (OCIAML3): > 333 nM; EC50 (HEL92.1.7): > 333 nM; EC50 (OCIAML5): 73 nM; EC50 (OCIM1): > 333 nM; EC50 (CMK): > 333 nM
